Measurements published in PubChem BioAssay (NCI).
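Where inhibition never reached the appropriate level, the endpoint shown equals the highest concentration tested. Otherwise, values were interpolated linearly from a five-concentration, 48-hour dose response in 96-well plates. GI50 marks 50% less growth. At the TGI there is no net growth.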

Tests used:
Assay in all cases: NCI anticancer screen, dose series, 48 h
CCRF-CEM leukemia = system: CCRF-CEM leukemia
U251 CNS = system: U251 CNS
TK-10 renal = system: TK-10 renal
PC-3 prostate = system: PC-3 prostate
RXF 393 renal = system: RXF 393 renal
SK-OV-3 ovarian = system: SK-OV-3 ovarian
KM12 colon = system: KM12 colon
SK-MEL-28 melanoma = system: SK-MEL-28 melanoma
OVCAR-8 ovarian = system: OVCAR-8 ovarian
CAKI-1 renal = system: CAKI-1 renal

Row | SMILES | GI50 (CCRF-CEM leukemia) [µM] | TGI (CCRF-CEM leukemia) [µM] | GI50 (U251 CNS) [µM] | TGI (U251 CNS) [µM] | GI50 (TK-10 renal) [µM] | TGI (TK-10 renal) [µM] | GI50 (PC-3 prostate) [µM] | TGI (PC-3 prostate) [µM] | GI50 (RXF 393 renal) [µM] | TGI (RXF 393 renal) [µM] | GI50 (SK-OV-3 ovarian) [µM] | TGI (SK-OV-3 ovarian) [µM] | GI50 (KM12 colon) [µM] | TGI (KM12 colon) [µM] | GI50 (SK-MEL-28 melanoma) [µM] | TGI (SK-MEL-28 melanoma) [µM] | GI50 (OVCAR-8 ovarian) [µM] | TGI (OVCAR-8 ovarian) [µM] | GI50 (CAKI-1 renal) [µM] | TGI (CAKI-1 renal) [µM]
1 | Cn1cc(-c2nc(-c3cn(C)c4ncccc34)cs2)c2ccccc21 | 2.98 | > 100 | 1.53 | 11.4 | 2.4 | 11.6 | 1.92 | 9.3 | 1.53 | 4.09 | 1.98 | 5.31 | 0.61 | > 100 | 2.09 | > 100 | 3.43 | > 100 | 0.972 | > 100
2 | CCS(=O)(=O)N1CCN(c2ccc(Nc3ncc(C(N)=O)c(NC4CC4)n3)cc2)CC1 | 0.749 | 10.9 | 54.1 | > 100 | 9.19 | 32.2 | 16.1 | > 100 | 1.61 | 9.46 | 7.93 | 26.3 | 0.812 | 18.5 | 13.6 | 35.6 | 5.62 | 88.1 | 5.46 | 28.5
3 | CCC(C(=O)[C@@H](C)[C@@H](O)[C@H](C)[C@@H]1O[C@@H]([C@@H](CC)C(=O)ONC(=O)c2ccccc2)CC[C@@H]1C)[C@H]1O[C@]2(C=CC(=O)[C@]3(CC[C@@](C)([C@H]4CC[C@](O)(CC)[C@H](C)O4)O3)O2)[C@H](C)C[C@@H]1C (some centres undefined) | 0.12 | 1.95 | 0.11 | 1.6 | 1.1 | 2.44 | 0.0775 | 1.99 | 0.0957 | 1.74 | 2.79 | 10.1 | 0.592 | 2.94 | 1.6 | 8.57 | 0.251 | 2.77 | 1.01 | 2.71
4 | N/C(=N/S(=O)(=O)c1cc(C(=O)Nc2ccc(F)cc2)c(Cl)cc1SCc1ccccc1)Nc1ccccc1O | 1.81 | 3.79 | 1.78 | 3.22 | 2.8 | 8.61 | 2.08 | 4.61 | 1.93 | 3.94 | 2.06 | 4.2 | 1.79 | 3.33 | 2.14 | 4.33 | 1.92 | 4.14 | 23.8 | > 100
5 | C=C1C(O)C2CC(C)(C)C(=O)C2=C(CC(C)C)C12CC2 (centres undefined) | 98.1 | > 100 | > 100 | > 100 | > 100 | > 100 | > 100 | > 100 | > 100 | > 100 | > 100 | > 100 | > 100 | > 100 | > 100 | > 100 | > 100 | > 100 | > 100 | > 100
6 | CCC(C)C(=O)OC1CCC=C2C=CC(C)C(CCC3CC(O)CC(=O)O3)C21 (centres undefined) |  | > 100 |  | > 100 |  | 98.8 |  | > 47.9 |  | > 80.6 |  | > 100 |  | > 100 |  | > 100 |  | > 100 |  | 29
7 | C(=C\c1ccc(OCC2CO2)cc1)/C1=NCOC1 (centres undefined) | 2.89 | 13.3 | 10.1 | 25 | 16.2 | 39.2 | 13.2 | 28 | 2.05 | 6.34 | 8.92 | 25.5 | 16.5 | 40.8 | 6.3 | 21.4 | 5.81 | 28 | 16.3 | 40.8
8 | CCOC(=O)c1cc2c(n1Cc1cc(OC)cc(OC)c1)-c1oncc1CC2 | 0.215 | > 100 | 0.262 | > 100 | 3.58 | > 100 | 0.383 | > 100 | 0.136 | > 100 | 0.309 | > 100 | 0.0816 | > 59.5 | 0.25 | > 100 | 0.475 | > 100 | 0.102 | > 100
9 | NC(=O)c1ncn2c(=O)n(CCCl)nnc12 | > 62.9 | 440 | 99.2 | 447 |  | 651 |  | 534 |  | 337 |  | 130 | > 92.4 | 408 |  | 562 |  | 426 | 91.4 | 548
